Among the test systems are NCI-H23 lung; SK-MEL-2 melanoma; NCI-H460 lung; KM12 colon; HOP-92 NSCLC; SK-OV-3 ovarian; CCRF-CEM leukemia; HOP-62 NSCLC; SF-295 CNS; SF-539 CNS.
What all share (assay): NCI-60 cell line screen, 48 h

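A five-concentration, 48-hour dose response in 96-well plates underlies each endpoint, interpolated linearly between surrounding concentrations. GI50 is the concentration that inhibits growth by half. TGI is the concentration that stops growth completely.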

In the case of `CN1Cc2ccccc2/C=C\c2ccccc21`, the TGI in the experiment on NCI-H23 lung was above 100000 nM; in the experiment on SK-MEL-2 melanoma it was 80200 nM; in the experiment on NCI-H460 lung, above 100000 nM; with KM12 colon it was above 100000 nM; with HOP-92 NSCLC, 98700 nM; in the experiment with SK-OV-3 ovarian it was above 100000 nM. Moreover, the TGI in the experiment on CCRF-CEM leukemia, with HOP-62 NSCLC, in the experiment on SF-295 CNS and with SF-539 CNS was above 100000 nM each time.
Take `CCCCCC(=O)Nc1nc2nc[nH]c2c(=O)[nH]1`: the TGI with NCI-H23 lung, in the experiment on SK-MEL-2 melanoma, in the experiment with NCI-H460 lung, in the experiment on KM12 colon, with HOP-92 NSCLC and with SK-OV-3 ovarian was above 100000 nM in each case. The TGI in the experiment on CCRF-CEM leukemia, in the experiment on HOP-62 NSCLC, in the experiment with SF-295 CNS and with SF-539 CNS was above 100000 nM in each case.
`CCC[CH2][Sn]([CH2]CCC)([S]C#N)[S]C#N`: the GI50 was 609 nM with NCI-H23 lung; 457 nM in the experiment on SK-MEL-2 melanoma; 2140 nM in the experiment with NCI-H460 lung; 1450 nM in the experiment on KM12 colon; 1790 nM in the experiment on HOP-92 NSCLC; 1770 nM in the experiment on SK-OV-3 ovarian. The GI50 in the experiment on CCRF-CEM leukemia was 224 nM; in the experiment on HOP-62 NSCLC it was 1980 nM; in the experiment with SF-295 CNS it was 1530 nM; in the experiment with SF-539 CNS it was 1240 nM. Further, the TGI turned out to be 2140 nM in the experiment on NCI-H23 lung; 1680 nM with SK-MEL-2 melanoma; 4960 nM in the experiment with NCI-H460 lung; 3110 nM in the experiment with KM12 colon; 3500 nM in the experiment on HOP-92 NSCLC; 3390 nM in the experiment on SK-OV-3 ovarian. Also, the TGI in the experiment with CCRF-CEM leukemia is 869 nM; with HOP-62 NSCLC, 3580 nM; in the experiment with SF-295 CNS, 2940 nM; with SF-539 CNS, 2550 nM.
Take `S=C1Cc2c(-c3ccc(Br)cc3)cc(-c3ccccc3)nc2-c2ccccc2N1`: the TGI with NCI-H23 lung is 12600 nM; in the experiment on SK-MEL-2 melanoma, 20000 nM; in the experiment on NCI-H460 lung, 2660 nM; with KM12 colon, above 42000 nM; with HOP-92 NSCLC, 4410 nM; in the experiment with SK-OV-3 ovarian, 3270 nM. In addition, the TGI came to 11200 nM with CCRF-CEM leukemia, 3010 nM with HOP-62 NSCLC, 5400 nM in the experiment with SF-295 CNS and 12200 nM in the experiment on SF-539 CNS.
Consider `CCOC(=O)C(Cc1ccc(N(CCCl)CCCl)cc1)NC(=O)C(Cc1ccccc1)NC=O` (centres undefined), for which the TGI worked out at 399 nM in the experiment with NCI-H23 lung; 989 nM with SK-MEL-2 melanoma; 604 nM in the experiment with NCI-H460 lung; 638 nM with KM12 colon; 419 nM in the experiment on HOP-92 NSCLC; 634 nM with SK-OV-3 ovarian. Further, the TGI with CCRF-CEM leukemia came out at 241 nM; in the experiment with HOP-62 NSCLC, 388 nM; in the experiment on SF-295 CNS, 523 nM; in the experiment on SF-539 CNS, 316 nM.
In the case of `O=C(NCCCc1cn[nH]c1)c1ccc(-c2ccncc2)c(C#Cc2ccc(F)cc2)c1`, the GI50 in the experiment on NCI-H23 lung was 14500 nM; in the experiment on SK-MEL-2 melanoma it was 11500 nM; with NCI-H460 lung, 145 nM; with KM12 colon, below 15.5 nM; with HOP-92 NSCLC it was 12700 nM; in the experiment with SK-OV-3 ovarian it was 8960 nM. For the same compound, the GI50 in the experiment with CCRF-CEM leukemia is below 10 nM; in the experiment with HOP-62 NSCLC it was 5490 nM; with SF-539 CNS it was below 10 nM. The TGI in the experiment with NCI-H23 lung was above 100000 nM; with SK-MEL-2 melanoma it was above 74100 nM; in the experiment with NCI-H460 lung it was 41900 nM; in the experiment with KM12 colon it was above 83200 nM; with HOP-92 NSCLC, 87000 nM; with SK-OV-3 ovarian it was above 100000 nM. Further, the TGI in the experiment on CCRF-CEM leukemia is above 100000 nM; in the experiment on HOP-62 NSCLC, above 64900 nM; in the experiment with SF-295 CNS it was 47900 nM; in the experiment on SF-539 CNS it was 14500 nM.
Regarding `C#Cc1cccc(Nc2nc(Cl)nc3cc(NC(=O)CCl)ccc23)c1`, the GI50 in the experiment on NCI-H23 lung was 962 nM; in the experiment with SK-MEL-2 melanoma, 1160 nM; in the experiment on NCI-H460 lung, 1440 nM; in the experiment on KM12 colon it was 1130 nM; in the experiment on HOP-92 NSCLC it was 1230 nM; in the experiment with SK-OV-3 ovarian, 2880 nM. Also, the GI50 was 588 nM with CCRF-CEM leukemia, 1990 nM in the experiment with HOP-62 NSCLC, 3890 nM in the experiment on SF-295 CNS and 2360 nM with SF-539 CNS. Also, the TGI in the experiment with NCI-H23 lung is 3770 nM; in the experiment with SK-MEL-2 melanoma it was 3600 nM; in the experiment with NCI-H460 lung, 4240 nM; in the experiment with KM12 colon, 4220 nM; in the experiment on HOP-92 NSCLC, 2860 nM; with SK-OV-3 ovarian, 6100 nM. For the same compound, the TGI in the experiment with CCRF-CEM leukemia is 2470 nM; in the experiment with HOP-62 NSCLC it was 5320 nM; in the experiment on SF-295 CNS, 7330 nM; in the experiment with SF-539 CNS, 5590 nM.
For the compound `CC(C)N(Cc1ccc(CN(C(=O)CCl)C(C)C)cc1)C(=O)CCl`, the GI50 is 1100 nM in the experiment on NCI-H23 lung; 2360 nM in the experiment with SK-MEL-2 melanoma; 1980 nM with NCI-H460 lung; 1750 nM with KM12 colon; 1830 nM in the experiment with HOP-92 NSCLC; 1830 nM in the experiment on SK-OV-3 ovarian. The GI50 with CCRF-CEM leukemia is 287 nM; with HOP-62 NSCLC, 856 nM; in the experiment with SF-295 CNS, 1810 nM; in the experiment on SF-539 CNS, 1670 nM. The TGI with NCI-H23 lung was determined as 3600 nM; with SK-MEL-2 melanoma, 5880 nM; in the experiment with NCI-H460 lung, 4740 nM; with KM12 colon, 3540 nM; with HOP-92 NSCLC, 3560 nM; with SK-OV-3 ovarian, 3350 nM. Moreover, the TGI in the experiment with CCRF-CEM leukemia is 865 nM; with HOP-62 NSCLC, 2370 nM; in the experiment on SF-295 CNS, 3880 nM; in the experiment on SF-539 CNS it was 3250 nM.
For the compound `C#C[C@@]1(O)[C@@H](CO)O[C@@H](n2cc(I)c3c(N)ncnc32)[C@@H]1O`, the GI50 in the experiment on NCI-H23 lung was 327 nM; in the experiment on SK-MEL-2 melanoma, 239 nM; in the experiment on NCI-H460 lung, 89.5 nM; in the experiment with KM12 colon, 96.2 nM; with HOP-92 NSCLC, 73.6 nM; in the experiment with SK-OV-3 ovarian it was 34.3 nM. In addition, the GI50 was 271 nM in the experiment with CCRF-CEM leukemia, 747 nM in the experiment with HOP-62 NSCLC, 432 nM with SF-295 CNS and 378 nM in the experiment with SF-539 CNS. Moreover, the TGI was 6480 nM in the experiment on NCI-H23 lung; 1760 nM with SK-MEL-2 melanoma; 1910 nM in the experiment on NCI-H460 lung; above 100000 nM with KM12 colon; 2220 nM in the experiment on HOP-92 NSCLC; 729 nM with SK-OV-3 ovarian. Moreover, the TGI in the experiment with CCRF-CEM leukemia was above 100000 nM; with HOP-62 NSCLC, 8690 nM; in the experiment with SF-295 CNS, 3770 nM; in the experiment on SF-539 CNS, 2550 nM.

The record behind these values is PubChem BioAssay (NCI).
